Where two headings read alike, the source gives them in different places.
Experiments:
[1] = biological target: T1, human recombinant serotonin (5-Hydroxytryptamine) 5-HT6 receptor (Homo sapiens, UniProt P50406); test: Serotonin 5-HT6 radioligand binding ([3H]LSD); settings: read-out: Inhibition of ligand binding, Serotonin 5-HT6 (percent inhibition of specific binding); for inhibition at 1 µM: compound at 1 μM
T1 construct: expressed in transfected cells; host or cells: human HeLa cells
Experimental: Compounds of the invention were incubated with 1.5 nM [3H]Lysergic acid diethylamide (LSD) for 120 min. at 37° C. […] Receptor proteins were filtered and washed, the filters were then counted to determine [3H]LSD specifically bound. Compounds were screened at 1 μM or lower, using 1% DMSO as vehicle. Biochemical assay results are presented as the percent inhibition of specific binding in Table 10.

[2] = biological target: T2, human recombinant serotonin (5-Hydroxytryptamine) 5-HT2A receptor (Homo sapiens, UniProt P28223); test: Serotonin 5-HT2A radioligand binding ([3H]Ketanserin); settings: for inhibition at 1 µM: read-out: Inhibition of ligand binding, Serotonin 5-HT2A (percent inhibition of specific binding), compound at 1 μM
T2 construct: expressed in transfected cells; host or cells: Chinese hamster ovary (CHO-K1) cells
T2 sequence (P28223 whole entry): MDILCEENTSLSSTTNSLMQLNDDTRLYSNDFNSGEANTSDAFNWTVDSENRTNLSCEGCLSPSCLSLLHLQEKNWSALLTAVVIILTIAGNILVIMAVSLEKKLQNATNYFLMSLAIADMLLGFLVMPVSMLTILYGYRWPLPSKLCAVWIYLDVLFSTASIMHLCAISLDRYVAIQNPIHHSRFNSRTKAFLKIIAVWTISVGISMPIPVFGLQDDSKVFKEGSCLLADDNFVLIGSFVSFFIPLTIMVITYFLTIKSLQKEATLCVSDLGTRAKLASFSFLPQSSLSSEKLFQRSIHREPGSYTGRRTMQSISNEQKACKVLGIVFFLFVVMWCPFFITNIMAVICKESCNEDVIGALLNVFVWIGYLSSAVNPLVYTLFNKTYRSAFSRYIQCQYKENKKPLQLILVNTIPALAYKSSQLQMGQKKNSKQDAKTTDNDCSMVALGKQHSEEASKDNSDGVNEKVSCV
Experimental: Compounds of the invention were incubated with 0.5 nM [^3H]Ketanserin for 60 min. at 25° C. Non-specific binding was estimated in the presence of 1 μM Mianserin. Receptor proteins were filtered and washed, the filters were then counted to determine [^3H]Ketanserin specifically bound.

[3] = biological target: T3, human recombinant histamine H2 receptor (Homo sapiens, UniProt P25021); test: Histamine H2 radioligand binding ([125I]Aminopotentidine); settings: read-out: Histamine Binding (1 μM) H2, percent inhibition of specific binding, 1 μM
T3 construct: expressed in transfected cells; host or cells: Chinese hamster ovary (CHO) K1 cells
T3 sequence (P25021 whole entry): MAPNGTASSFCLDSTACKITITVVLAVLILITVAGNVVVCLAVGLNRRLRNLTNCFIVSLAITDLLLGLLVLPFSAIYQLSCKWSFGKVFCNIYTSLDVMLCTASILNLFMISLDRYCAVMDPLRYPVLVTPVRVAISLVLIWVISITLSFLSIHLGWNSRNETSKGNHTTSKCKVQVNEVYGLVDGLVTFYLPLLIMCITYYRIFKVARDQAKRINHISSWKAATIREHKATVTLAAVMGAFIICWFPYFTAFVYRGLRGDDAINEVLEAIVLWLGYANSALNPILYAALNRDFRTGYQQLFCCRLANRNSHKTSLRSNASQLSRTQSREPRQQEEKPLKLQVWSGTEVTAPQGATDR
How it was run: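 CHO-K1 cells expressing human recombinant H2 receptor, 50 mM phosphate buffer pH 7.4; compounds incubated with 0.1 nM [125I]aminopotentidine for 120 min at 25 °C. Nonspecific binding defined with 3 μM tiotidine; specifically bound radioligand counted after filtration and washing.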

[4] = biological target: human recombinant serotonin (5-Hydroxytryptamine) 5-HT7 receptor (Homo sapiens, UniProt P34969); test: Serotonin 5-HT7 radioligand binding ([3H]LSD); settings: compound at 1 μM; read-out: Inhibition of ligand binding, Serotonin 5-HT7 (percent inhibition of specific binding)
Sequence of human recombinant serotonin (5-Hydroxytryptamine) 5-HT7 receptor (P34969 whole entry): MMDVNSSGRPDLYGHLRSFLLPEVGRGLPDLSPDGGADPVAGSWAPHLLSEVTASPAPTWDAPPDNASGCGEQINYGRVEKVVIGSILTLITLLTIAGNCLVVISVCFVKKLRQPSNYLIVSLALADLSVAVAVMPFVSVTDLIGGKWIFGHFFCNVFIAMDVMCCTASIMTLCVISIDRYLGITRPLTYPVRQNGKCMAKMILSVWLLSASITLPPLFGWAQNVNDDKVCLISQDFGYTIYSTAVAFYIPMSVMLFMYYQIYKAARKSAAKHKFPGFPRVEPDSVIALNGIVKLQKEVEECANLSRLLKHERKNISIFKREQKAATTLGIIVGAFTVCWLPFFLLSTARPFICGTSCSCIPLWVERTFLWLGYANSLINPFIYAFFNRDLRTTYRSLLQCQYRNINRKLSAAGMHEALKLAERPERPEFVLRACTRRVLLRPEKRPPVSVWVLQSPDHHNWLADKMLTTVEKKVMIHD
Description: Receptor proteins were filtered and washed, the filters were then counted to determine [^3H]LSD specifically bound.

[5] = biological target: T4, human recombinant serotonin (5-Hydroxytryptamine) 5-HT2C receptor (Homo sapiens, UniProt P28335); test: Serotonin 5-HT2C radioligand binding ([3H]Mesulergine); settings: read-out: Inhibition of ligand binding, Serotonin 5-HT2C (percent inhibition of specific binding); for inhibition at 1 µM: compound at 1 μM
T4 construct: expressed in transfected cells; host or cells: Chinese hamster ovary (CHO-K1) cells
T4 sequence (P28335 33-458): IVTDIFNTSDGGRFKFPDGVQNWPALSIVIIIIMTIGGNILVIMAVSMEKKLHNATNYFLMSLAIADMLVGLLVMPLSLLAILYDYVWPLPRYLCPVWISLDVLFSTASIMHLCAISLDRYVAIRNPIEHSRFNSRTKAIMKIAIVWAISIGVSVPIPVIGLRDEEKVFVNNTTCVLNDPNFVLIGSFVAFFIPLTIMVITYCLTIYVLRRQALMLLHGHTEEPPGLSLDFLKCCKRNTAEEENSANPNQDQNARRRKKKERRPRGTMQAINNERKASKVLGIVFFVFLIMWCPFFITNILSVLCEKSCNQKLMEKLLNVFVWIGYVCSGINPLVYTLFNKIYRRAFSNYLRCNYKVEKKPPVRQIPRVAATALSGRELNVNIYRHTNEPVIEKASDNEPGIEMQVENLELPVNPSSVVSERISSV
How it was run: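 Compounds tested at 1 μM or lower (1% DMSO vehicle) for displacement of 1 nM [3H]Mesulergine over 60 min at 25° C. Specific binding determined by filtration counting, with 1 μM Mianserin defining non-specific binding; values are percent inhibition.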

histamine receptor H1 = histamine receptor H1 (Homo sapiens, UniProt P35367); test: Histamine H1 radioligand binding ([3H]Pyrilamine); settings: for inhibition at 1 µM: read-out: Histamine Binding (1 μM) H1, percent inhibition of specific binding, 1 μM
Sequence of histamine receptor H1 (P35367 whole entry): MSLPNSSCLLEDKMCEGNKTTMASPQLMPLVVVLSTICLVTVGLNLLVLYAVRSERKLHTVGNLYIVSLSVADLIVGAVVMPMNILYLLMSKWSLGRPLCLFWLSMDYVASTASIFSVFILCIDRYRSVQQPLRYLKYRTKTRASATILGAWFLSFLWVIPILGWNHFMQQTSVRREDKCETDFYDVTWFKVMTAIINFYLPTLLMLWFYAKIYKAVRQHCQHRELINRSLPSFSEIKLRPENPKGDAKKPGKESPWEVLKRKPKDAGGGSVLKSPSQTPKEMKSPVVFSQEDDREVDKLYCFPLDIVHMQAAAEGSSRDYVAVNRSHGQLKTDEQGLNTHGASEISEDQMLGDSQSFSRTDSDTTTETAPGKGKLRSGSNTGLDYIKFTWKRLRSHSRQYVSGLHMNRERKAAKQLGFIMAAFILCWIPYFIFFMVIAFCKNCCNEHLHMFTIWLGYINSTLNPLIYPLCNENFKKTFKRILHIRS
How it was run: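 Values are percent inhibition of specific [3H]pyrilamine (1.2 nM) binding with compounds at ≤1 μM (1% DMSO vehicle); 180 min incubation at 25 °C, pH 7.4 Tris buffer, on CHO-expressed human H1 receptor; 1 μM pyrilamine defined nonspecific binding, bound ligand counted after filtration.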

[6] = biological target: human dopamine D2L receptor (Homo sapiens, UniProt P14416); test: Dopamine D2L radioligand binding ([3H]Spiperone); settings: compound at 1 μM
Sequence of human dopamine D2L receptor (P14416 whole entry): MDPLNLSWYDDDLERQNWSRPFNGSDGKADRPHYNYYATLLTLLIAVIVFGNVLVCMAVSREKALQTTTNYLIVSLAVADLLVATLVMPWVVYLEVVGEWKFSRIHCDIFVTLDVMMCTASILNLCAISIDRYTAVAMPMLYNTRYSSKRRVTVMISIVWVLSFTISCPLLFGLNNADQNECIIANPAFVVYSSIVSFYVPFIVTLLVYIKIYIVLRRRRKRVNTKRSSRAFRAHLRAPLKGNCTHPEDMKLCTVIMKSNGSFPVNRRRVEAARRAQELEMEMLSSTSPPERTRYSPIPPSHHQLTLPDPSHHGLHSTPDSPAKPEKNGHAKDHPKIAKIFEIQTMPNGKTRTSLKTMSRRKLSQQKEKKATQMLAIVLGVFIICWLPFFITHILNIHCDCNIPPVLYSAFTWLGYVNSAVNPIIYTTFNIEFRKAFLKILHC
Description: Non-specific binding was estimated in the presence of […] Haloperidol. Receptor proteins were filtered and washed, the filters were then counted to determine [^3H]Spiperone specifically bound. […] Biochemical assay results are presented as the percent inhibition of specific binding in Table 9.

[7] = percent inhibition of specific binding, read-out: Inhibition of ligand binding, Dopamine D2L

T1 sequence (P50406 whole entry): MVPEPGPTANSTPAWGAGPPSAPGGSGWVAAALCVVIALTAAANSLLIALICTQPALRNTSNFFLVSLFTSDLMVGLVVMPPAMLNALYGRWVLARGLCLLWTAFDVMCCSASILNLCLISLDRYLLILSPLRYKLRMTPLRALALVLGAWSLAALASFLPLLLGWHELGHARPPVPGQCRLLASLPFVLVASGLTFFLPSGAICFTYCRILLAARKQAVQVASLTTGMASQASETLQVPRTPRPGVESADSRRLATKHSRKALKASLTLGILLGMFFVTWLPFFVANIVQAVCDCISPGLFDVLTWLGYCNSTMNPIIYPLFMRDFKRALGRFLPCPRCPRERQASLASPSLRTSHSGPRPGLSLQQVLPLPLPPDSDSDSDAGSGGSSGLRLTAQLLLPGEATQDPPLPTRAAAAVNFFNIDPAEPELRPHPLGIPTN

| SMILES | inhibition at 1 µM [1] | inhibition at 1 µM [2] | inhibition at 1 µM [3] | inhibition at 1 µM [4] | inhibition at 1 µM [5] | inhibition at 1 µM (histamine receptor H1) | inhibition at 1 µM ([6]; […] [3H]Spiperone, read-out: Inhibition of ligand binding, Dopamine D2L (percent inhibition of specific binding)) | inhibition at 0.1 µM ([1]; compound at 0.1 μM) | inhibition at 0.1 µM ([2]; read-out: Inhibition of ligand binding, Serotonin 5-HT2A (percent inhibition of specific binding), compound at 0.1 μM) | inhibition at 0.1 µM ([5]; compound at 0.1 μM) | Histamine Binding (1 μM) H1, percent inhibition of specific binding (histamine receptor H1; 1 μM) | Inhibition of ligand binding, Dopamine D2L ([6]; percent inhibition of specific binding, 1 µM) | inhibition at 1 µM [6, 7] |
| --- | --- | --- | --- | --- | --- | --- | --- | --- | --- | --- | --- | --- | --- |
| C=C(Cn1c2c(c3cc(OC)ccc31)CN(C)CC2)c1ccncc1 [Compound No. 356, 8-methoxy-2-methyl-5-(2-(pyridin-4-yl)allyl)-2,3,4,5-tetrahydro-1H-pyrido[4,3-b]indole] | 90% | 81% | 17% | 60% | 83% | 70% | 37% | – | – | – | – | – | – |
| C/C(=C\n1c2c(c3ccc(Cl)cc31)CN(C)CC2)c1ccncc1 [Compound 219, (E)-7-chloro-2-methyl-5-(2-(pyridin-4-yl)prop-1-enyl)-2,3,4,5-tetrahydro-1H-pyrido[4,3-b]indole] | 102% | 101% | 82% | 94% | 98% | 60% | – | 96% | 100% | 94% | 66% | 97% | 96% |
| CN1CCc2c(c3cc(F)ccc3n2CC(C)(O)c2ccncc2)C1 (stereo not shown) [Compound 181, 1-(8-fluoro-2-methyl-3,4-dihydro-1H-pyrido[4,3-b]indol-5(2H)-yl)-2-(pyridin-4-yl)propan-2-ol] | 32% | 77% | 25% | 30% | 80% | 0% | – | – | – | – | – | – | 8% |
| C/C(=C/n1c2c(c3cc(Cl)ccc31)CN(C)CC2)c1ccccc1Cl [Compound 237, (Z)-8-chloro-5-(2-(2-chlorophenyl)prop-1-enyl)-2-methyl-2,3,4,5-tetrahydro-1H-pyrido[4,3-b]indole] | 101% | 101% | 95% | 100% | 98% | 88% | – | – | – | – | – | – | 45% |
| C/C(=C\n1c2c(c3cc(Cl)ccc31)CN(C)CC2)c1ccc(Cl)c(Cl)c1 [Compound 103, (E)-8-chloro-5-(2-(3,4-dichlorophenyl)prop-1-enyl)-2,3,4,5-tetrahydro-2-methyl-1H-pyrido[4,3-b]indole] | 89% | 101% | 101% | 90% | 98% | 81% | – | – | – | – | – | – | 49% |
| C/C(=C\n1c2c(c3cc(Cl)c(Cl)cc31)CN(C)CC2)c1ccncc1 [Compound 243, (E)-7,8-dichloro-2-methyl-5-(2-(pyridin-4-yl)prop-1-enyl)-2,3,4,5-tetrahydro-1H-pyrido[4,3-b]indole] | 107% | 100% | 90% | 97% | 99% | 95% | – | – | – | – | – | – | 96% |
| C/C(=C\n1c2c(c3ccc(F)cc31)CN(C)CC2)c1ccc(F)cc1 [Compound 227, (E)-7-fluoro-5-(2-(4-fluorophenyl)prop-1-enyl)-2-methyl-2,3,4,5-tetrahydro-1H-pyrido[4,3-b]indole] | 107% | 103% | 101% | 90% | 103% | 52% | – | – | – | – | – | – | 97% |
| C/C(=C\n1c2c(c3cccc(Cl)c31)CN(C)CC2)c1ccncc1 [Compound 222, (E)-6-chloro-2-methyl-5-(2-(pyridin-4-yl)prop-1-enyl)-2,3,4,5-tetrahydro-1H-pyrido[4,3-b]indole] | 102% | 100% | 91% | 69% | 99% | 25% | – | – | – | – | – | – | 82% |

Source: patent US8906925B2, “Pyrido[4,3-B]indoles containing rigid moieties” (Medivation Technologies, Inc., priority 2008, dated 2014)
